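Test compounds were applied to cells in 96-well plates for 48 hours at 5 doses. GI50 = concentration required for 50% inhibition of growth.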 Activity calls are given as the source filed them. Rule as the data show it: active = GI50 up to about 1.1 µM and inactive = higher.
Columns and labels:
Test in all cases: NCI anticancer screen, dose series, 48 h
SF-295 = tested on: SF-295
RXF 393 = tested on: RXF 393
LOX IMVI = tested on: LOX IMVI
CCRF-CEM = tested on: CCRF-CEM
SN12C = tested on: SN12C
K562 = tested on: K562
OVCAR-3 = tested on: OVCAR-3
SK-MEL-28 = tested on: SK-MEL-28
SW-620 = tested on: SW-620
HOP-92 = tested on: HOP-92
OVCAR-4 = tested on: OVCAR-4
OVCAR-8 = tested on: OVCAR-8
U-251 = tested on: U-251
SF-268 = tested on: SF-268
A549 = tested on: A549
SK-MEL-2 = tested on: SK-MEL-2
HCC 2998 = tested on: HCC 2998
HT-29 = tested on: HT-29
NCI-H226 = tested on: NCI-H226
OVCAR-5 = tested on: OVCAR-5

Row | Structure (SMILES) | GI50 (SF-295) | GI50 (RXF 393) | GI50 (LOX IMVI) | GI50 (CCRF-CEM) | GI50 (SN12C) | GI50 (K562) | GI50 (OVCAR-3) | GI50 (SK-MEL-28) | GI50 (SW-620) | GI50 (HOP-92) | GI50 (OVCAR-4) | GI50 (OVCAR-8) | GI50 (U-251) | GI50 (SF-268) | GI50 (A549) | GI50 (SK-MEL-2) | GI50 (HCC 2998) | GI50 (HT-29) | GI50 (NCI-H226) | GI50 (OVCAR-5)
1 | Cc1ccc(N(O)C(C)(C)C)cc1 | > 100 µM (inactive) | > 100 µM (inactive) | > 100 µM (inactive) | > 100 µM (inactive) | > 100 µM (inactive) | > 100 µM (inactive) | > 100 µM (inactive) | > 100 µM (inactive) | > 100 µM (inactive) | > 100 µM (inactive) | > 100 µM (inactive) | > 100 µM (inactive) | > 100 µM (inactive) | > 100 µM (inactive) | > 100 µM (inactive) | > 100 µM (inactive) | > 100 µM (inactive) | > 100 µM (inactive) | > 100 µM (inactive) | > 100 µM (inactive)
2 | COc1nc(-c2cn(S(=O)(=O)c3ccc(C)cc3)c3ccc(Br)cc23)cc(C(F)(F)F)c1C#N | 97.3 µM (inactive) | 19.8 µM (inactive) | 23.7 µM (inactive) | 24.8 µM (inactive) | 45.1 µM (inactive) | 27.8 µM (inactive) | 18 µM (inactive) | 94.4 µM (inactive) | 66.2 µM (inactive) | 31.3 µM (inactive) | 41.4 µM (inactive) | 25.6 µM (inactive) | 16.9 µM (inactive) | 53.2 µM (inactive) | > 100 µM (inactive) | 65.6 µM (inactive) | 85.9 µM (inactive) | > 100 µM (inactive) | 18 µM (inactive) | 61.5 µM (inactive)
3 | O=[N+]([O-])c1cc2ncc(-c3ccccc3)c(O)c2cc1/C(Cl)=C/c1ccccc1 | 6.65 µM (inactive) | 8.17 µM (inactive) | 6.93 µM (inactive) | 4.43 µM (inactive) | 14.2 µM (inactive) | 5.86 µM (inactive) | 2.59 µM (inactive) | 17.2 µM (inactive) | 6.71 µM (inactive) | 3.47 µM (inactive) | 3.2 µM (inactive) | 5.6 µM (inactive) | 6.5 µM (inactive) | 3.62 µM (inactive) | 10.1 µM (inactive) | 32.6 µM (inactive) | 8.26 µM (inactive) | 13.4 µM (inactive) | 13 µM (inactive) | > 44.7 µM (inactive)
4 | CC(C)(C)[Si](OC1CC(n2cnc3c(N)ncnc32)OC1CO)(c1ccccc1)c1ccccc1 (stereo not given) | 15 µM (inactive) | 13.4 µM (inactive) | 17.7 µM (inactive) | 12.9 µM (inactive) | 20.9 µM (inactive) | 17.1 µM (inactive) | 16.6 µM (inactive) | 21.5 µM (inactive) | 19 µM (inactive) | 20.2 µM (inactive) | 15 µM (inactive) | 18.9 µM (inactive) | 17.1 µM (inactive) | 16.1 µM (inactive) | 15.2 µM (inactive) | 18.8 µM (inactive) | 67.5 µM (inactive) | 16.1 µM (inactive) | 12.4 µM (inactive) | 18.6 µM (inactive)
5 | O=C(NCCCCCCNC(=O)n1cc(F)c(=O)[nH]c1=O)NCCCOCCOCCCNC(=O)C(O)C(O)C(O)C(O)CO (stereo not given) | > 2.5 µM (inactive) | > 2.5 µM (inactive) | > 2.16 µM (inactive) | > 2.5 µM (inactive) | > 2.5 µM (inactive) | > 2.5 µM (inactive) | > 2.5 µM (inactive) | > 2.5 µM (inactive) | > 2.5 µM (inactive) | > 2.5 µM (inactive) | > 2.5 µM (inactive) | > 2.5 µM (inactive) | > 2.5 µM (inactive) | > 2.5 µM (inactive) | > 2.05 µM (inactive) | > 2.5 µM (inactive) | 0.152 µM (active) | > 2.32 µM (inactive) | > 2.5 µM (inactive) | > 2.5 µM (inactive)
6 | Nc1ncnc2c1sc1nc3ccccc3n12 | > 56.2 µM (inactive) | 12.8 µM (inactive) | 4.13 µM (inactive) | 19.8 µM (inactive) | > 100 µM (inactive) | > 100 µM (inactive) | > 100 µM (inactive) | > 100 µM (inactive) | > 100 µM (inactive) | > 100 µM (inactive) | > 100 µM (inactive) | 60.8 µM (inactive) | 53.1 µM (inactive) | 19.4 µM (inactive) | > 49.1 µM (inactive) | > 100 µM (inactive) | > 44.8 µM (inactive) | > 70.8 µM (inactive) | 51.1 µM (inactive) | > 93.3 µM (inactive)
